Measured values published in paper PMC12303080, “Diverse actions of 15 structurally unrelated mitochondrial uncouplers in cells and mice” (Molecular Metabolism, 2025).
Where two headings read alike, the source gives them in different places. Each block holds one compound with its values, some of them ahead of it.

Legend:
[1] = system: CHO–K1 cells; test: OCR in the absence or presence of oligomycin (Supplementary Fig. 6); type: cell-based, Cricetulus griseus; conditions: 1 μM oligomycin, uncoupler at lowest concentration yielding MaxOCR
Description: ATP synthase is the major conduit through which protons re-enter the mitochondrial matrix. Thus, we sought to investigate whether the selected uncouplers could stimulate oxygen consumption in the presence of the ATP synthase inhibitor oligomycin.
Supplementary Figure 6. […] At ~24 minutes, 1 μM of oligomycin or vehicle was injected, followed by the injection of the indicated uncoupler or vehicle at ~44 minutes, and 0.5 μM Rotenone / Antimycin A at ~88 minutes.

[2] = system: Swiss mice; set-up: method as in PMID 18505478; conditions: ∼30–105 μg/kg/day in drinking water; cited from earlier work
[3] = system: CHO–K1 cells; test: Seahorse XF-96 OCR dose response of 15 uncouplers (Figure 2); type: cell-based, Cricetulus griseus; conditions: for EC50: mean OCR (% basal) over first 24 min post injection, ± standard error, four-parameter fit
Description: Stock solutions of the uncouplers and/or Rotenone/Antimycin A were diluted in Seahorse media to give the final concentration indicated in Figure 1, Figure 2, Figure 3 with 0.4% (v/v) DMSO in wells.

[4] = system: humans; conditions: cited from earlier work
[5] = system: Arabidopsis thaliana cells; set-up: method as in PMID 22006339; conditions: cited from earlier work
[6] = system: db/db mice; test: Four-week treatment by admixture in chow, metabolic phenotyping; conditions: 4 weeks
Description: Body weight and glucose tolerance of male db/+ and db/db mice was assessed at 8–9 weeks of age to obtain baseline measurements. Db/+ were used as lean metabolically healthy controls and given ad libitum access to chow diet. Db/db mice were stratified into 12 groups using R (V4.4.0).
Mice were on treatment for a period of four weeks, during which body weight and food intake were measured daily. […] To counter this, food traps were placed beneath hoppers and leftover food in both the traps and hoppers was weighed daily. HbA1c was measured weekly. At the end of the treatment period, a glucose tolerance test was conducted, with fed and fasted bloods collected. At termination, blood was collected via cardiac puncture under isoflurane anaesthesia. Mice were euthanised by cervical dislocation and harvested tissues were flash-frozen in liquid nitrogen and stored at −80 °C.
Mice were fasted for 6 h and then received intraperitoneal injections of 20% (w/v) dextrose at a dose of 1 g/kg lean body mass. Blood glucose (BG) was measured at the time of fasting (random-fed BG) and then again prior to the commencement of the GTT following the 6-hour daytime fast (fasted BG). […] The rate of glucose clearance was measured using the trapezoidal method for calculation of area under the curve.
HbA1c was measured once weekly using an A1cNow + Portable HbA1c Test Kit. […] HbA1c was measured in the random-fed state.
A glucose tolerance test was conducted at the end of the treatment period, with random fed and 6-hour fasted bloods collected. Blood was collected in heparin tubes and kept on ice prior to centrifugation at 2000×g for 10 min at 4 °C to extract plasma. Plasma insulin concentration was determined using the Crystal Chem Ultra-Sensitive Mouse Insulin ELISA kit, according to manufacturers' instructions for the high range (1–64 ng/mL) assay.

[7] = Drug exposure / pharmacokinetics after oral gavage; conditions: male, C57BL/6J, mouse, plasma, 10 mg/kg

SMILES: O=[N+]([O-])c1ccc(O)c([N+](=O)[O-])c1 [DNP, 2,4-Dinitrophenol]
Effect of oligomycin on uncoupler-stimulated OCR [1]: largely unaffected by the presence of oligomycin | Lifespan extension [2]: 7% | MaxOCR lower than that seen with BAM15 ([3]; CHO–K1, Figure 2): ~27% | EC50 ([3]; Cricetulus griseus, CHO-K1, 0.4 h, read-out: EC50 (increase of OCR), CHO–K1): 17 ± 1.18 µM | EC50 ([3]; read-out: EC50 (increase of OCR), CHO–K1): 17 µM | Body weight lost per week [4]: 1.5 kg | Weight loss [4]: ≤ 1.5 kg/week | Increase in metabolic rate ([4]; for every 100 mg ingested): 11%

Cmax [7]: 72.3 µM
SMILES: O=[N+]([O-])c1ccc(NS(=O)(=O)c2ccc(Br)s2)cc1 [ES9, Endosidin 9]
Effect of oligomycin on uncoupler-stimulated OCR [1]: largely unaffected by the presence of oligomycin | EC50 ([3]; CHO–K1, read-out: EC50 (increase of OCR)): 1.6 µM | Concentration range with sustained enhanced OCR (OCR ≥ 150% basal) ([3]; CHO–K1, tested 0.32–200 μM): ≤ 100 µM | EC50 ([3]; Cricetulus griseus, CHO-K1, 0.4 h, CHO–K1, read-out: EC50 (increase of OCR)): 1.61 ± 0.41 µM | Concentration increasing respiration (as low as) [5]: Endosidin 9 (ES9) • ES9 has not been tested in mouse models of metabolic disease. It was identified in a chemical library screen for inhibitors of endomembrane trafficking and increased respiration in Arabidopsis thaliana cells at concentrations as low as 1 μM [71]. | Gastrocnemius weight vs control ([6]; 0.015% in chow): significantly larger gastrocnemius | Gastrocnemius weight vs control ([6]; 0.03% in chow): significantly larger gastrocnemius | Increase of total liver cholesterol content vs db/db control ([6]; 0.03% in chow): ~1.7 fold | Post-treatment GTT AUC lower than control group ([6]; 0.03% in chow): ~35% | Body weight / weight gain vs db/db controls ([6]; 0.15% BAM15, 0.02% OPC-163493, 0.015% and 0.03% ES9, NTZ and NEN both doses): non-significant trend for increased weight gain | GTT ΔAUC (post minus pre-treatment) ([6]; 0.15% and 0.2% BAM15, printed 0.3% ES9): statistically significant protection from worsening glucose tolerance | Blood glucose, HbA1c, glucose tolerance vs control ([6]; NEN both doses, 0.01% OPC, 0.015% ES9, 0.2% NTZ): did not have significantly lower random-fed or 6-hour fasted blood glucose | HbA1c ([6]; both doses of BAM15, printed 0.3% ES9, 0.4% NTZ): lowered HbA1c levels | Fasting and random fed blood glucose ([6]; either dose of BAM15, high dose ES9, high dose NTZ): partial efficacy | Increase of liver triglyceride concentration vs db/db controls ([6]; high dose ES9 (0.03%)): ~2.7 fold | Increase of total liver triglyceride content vs db/db controls ([6]; high dose ES9 (0.03%)): ~3.4 fold | Liver triglyceride concentration vs db/db controls ([6]; lower dose ES9 (0.015%)): significantly increased liver triglyceride concentration | Increase in liver wet weight vs db/db control ([6]; printed 0.3% ES9 in chow): ~25%
